Residues, ends and D or L forms follow the SMILES beside them.
Assays:
[1] = Plasma half-life in humans; format: in vivo; conditions: intravenous, 2.6 mg/kg, human, human equivalent concentrations
[2] = PK dose-separation study in cynomolgus macaques; format: in vivo, cynomolgus macaques (Macaca fascicularis); conditions: macaque
Experimental: We conducted further PK studies to probe the necessary dose-separation interval to mitigate degradation. These studies were conducted in cynomolgus macaques (Macaca fascicularis) to maximize their relevance to humans. Nerinetide was given as a 10-minute intravenous infusion at a dose of 2.6 mg/kg. This dosing regimen was neuroprotective in macaques exposed to stroke by LVO (Cook et al., Nature 483, 213-217 (2012)) and was used in both the Phase 2 ENACT trial (Lancet Neurol 11, 942-950 (2012)) and the ESCAPE-NA1 trial (Lancet 395, 878-887 (2020)). We examined the scenarios in which alteplase administration was started simultaneously with the nerinetide infusion start, at the end of the 10-minute nerinetide infusion, or 10 minutes after the end of nerinetide infusion. Alteplase (1 mg/kg) was administered through a separate intravenous line as a 10% bolus, followed by an infusion of the remaining 90% over 1 hour, as per its clinical use.

PDZ2 domain of PSD-95 = PDZ2 domain of PSD-95 (Homo sapiens, UniProt P78352); experiment: Direct ELISA of biotinylated peptides to PSD-95 PDZ2; format: binding; conditions: biotinylated peptides, triplicate; read-out: EC50, direct ELISA binding to PSD-95 PDZ2 domain
PDZ2 domain of PSD-95, sequence (P78352 160-246 limits assumed): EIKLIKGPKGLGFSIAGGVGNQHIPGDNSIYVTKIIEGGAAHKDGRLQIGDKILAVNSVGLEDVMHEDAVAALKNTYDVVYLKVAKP
Experimental: ELISA plates were coated with 1 ug/ml PSD95PDZ2 in 50 mM bicarbonate buffer overnight at 4 C. The plate was blocked in 2%BSA in PBST (0.05%) for 2 h at room temperature. It was then incubated with biotinylated ligand (nerinetide, D-tat-L2B9c or D-Tat-L-AA) at the indicated concentrations (FIG. 4A) and incubated overnight at 4 C. After washing with PBS-T, the plate was incubated for 30 min with (1:3000) SA-HRP, washed again, and incubated with TMB solution for 10 min. The reaction was stopped with 100 ul H2504. Absorbance was determined at 450 nm with the synergy H1 reader.

[3] = system: transient middle cerebral artery occlusion (tMCAO); experiment: Rat transient middle cerebral artery occlusion model
Experimental: Nerinetide and lodoxamide was administered to rats intravenously as a bolus injection, 60 minutes after tMCAo. […] Bars in A and represent mean±SD, with all individual data points plotted. Asterisks in A indicate P<0.01 when compared to the vehicle group (one-way ANOVA post hoc Tukey's correction for multiple comparisons test) N=12-14 animals/group. […] Significant differences are indicated with an asterisk when compared to the vehicle group (Kruskal-Wallis analysis of variance on ranks with a post-hoc Dunn's correction for multiple comparisons test, *P<0.01). Vehicle: PBS alone. Scrambled: ADA peptide incapable of binding PSD-95.
All animals subjected to surgery had their physiological parameters measured prior to MCA occlusion. PE-50 polyethylene tubing was inserted into the right femoral artery for invasive monitoring of mean arterial blood pressure and for obtaining blood samples to measure blood gases (pH, PaO2, and PaCO2), electrolytes (Na^+, K^+, iCa) and plasma glucose at baseline [Blood gas cartridge CG8+, VetScan i-STAT 1 Analyzer].
Infarct volumes and hemispheric swelling were evaluated at 24 hours post-stroke from standard brain slices stained with 2% 2,3,5-triphenyltetrazolium chloride (Sigma Aldrich, St. Louis, Md., USA)(7). Neurologic scoring was conducted at 24 hours after stroke onset using forelimb-placing tests comprising of frontal visual placing, sideways visual placing, frontal tactile placing, sideways tactile placing, and vertical tactile placing (scores range from 0-2 in each component for a maximum of 12 indicating maximum impairment.

[4] = Nerinetide plasma levels in ESCAPE-NA1 subjects with and without alteplase; format: in vivo, human
Experimental: All patients had standard assessments of demographic characteristics, medical history, laboratory values and stroke severity (NIHSS score). In some patients, up to 6 consecutive blood samples were drawn following dosing for pharmacokinetic analysis of nerinetide levels.
Nerinetide plasma levels were obtained from 22 subjects in ESCPAE-NA1 and previously acquired data from 8 healthy volunteer subjects receiving a single dose of 2.6 mg/kg nerinetide intravenously. Time 0 is a preinfusion time-point. […] The bars represent standard error of the mean. […] In the presence of alteplase, nerinetide's maximum level was reduced by more than 50% with decline to background level by 60 minutes. […] (p=0.0119, mixed effects linear regression).

[5] = In-vitro peptide degradation assay in human plasma with rt-PA or TNK
Experimental: To determine nerinetide stability in the presence of rt-PA in plasma, we use an in-vitro peptide content analysis by HPLC. In brief, Nerinetide or D-Tat-L-2B9c were spiked into rat or human plasma at a concentration of 65 ug/ml. rt-PA was added after the baseline time-point was collected, at the specified concentrations. rt-PA administration followed the clinical dosing approach [10% bolus dose followed by 60-mins infusion (90% of the dose)], using a Harvard apparatus pump. Sample collection following IV bolus was performed at 5 min, 15 min, 30 min and 45 min post-dose. At each time point, approximately 100 uL of plasma was collected from each vial using a fresh syringe. Plasma was then collected and stored at -80° C. until analyzed.
Nerinetide or D-Tat-L2B9c was extracted by precipitation with 1M perchloric acid. All analyses were performed on an Agilent 1260 Infinity Quaternary LC System (Agilent Technologies, Santa Clara, Calif., USA) and on a 25 cm [YMAA12S052546WT] C-18 RP-HPLC column (Agilent Technologies, Santa Clara, Calif., USA). The column was equilibrated with 10% acetonitrile with 0.1% TFA at 40° C. The eluent flow was 1.5 ml/min (gradient from 10% to 35% acetonitrile in 0.1% TFA) The UV trace was recorded at 220 nm. Concentrations of nerinetide or D-Tat-L-2B9c were derived from calibration standards obtained by spiking the agent into plasma.

[6] = In-vivo pharmacokinetic analysis in rats; conditions: rat
Experimental: Since the effect of nerinetide in the ESCAPE-NA1 trial was negated by alteplase, we next evaluated the effects of alteplase on pharmacokinetics (PK) of nerinetide in rats. Alteplase was administered at 0.9 mg/kg (human dose) and at 5.4 mg/kg (6 times the human dose) in an infusion that simulated the clinical protocol (10% bolus followed by a 60 min infusion of the remainder). Nerinetide was administered as an intravenous bolus at the start of the alteplase infusion at 7.6 mg/kg.
The goal of these study was to evaluate nerinetide PK parameter changes when in the presence of circulating rt-PA and plasmin. Male naïve rats received an intravenous administration of either nerinetide alone, nerinetide plus rt-PA (0.9 mg/kg) or nerinetide plus rt-PA (5.4 mg/kg). Sample collection was performed pre-dose and 0 min, 5 min, 10 min, 20 min, 50 min post-dose. At each time point, approximately 300 uL of blood was sampled from each animal using a fresh syringe. Blood samples were collected in previously prepared Eppendorf tubes [30 ul of EDTA 2.5%] and centrifuged for 20 minutes to separate plasma and cell components.
Plasma samples were stored at −80° C. until analyzed.
Changes in peptide concentration were analyzed using a two-way repeated measures ANOVA, followed by the Sidak correction for multiple comparisons. The pharmacokinetic (PK) parameters of peak plasma concentration (Cmax) and the area under the plasma concentration-time curve from 0 to last measured concentration (AUC) were obtained with PKsolver Software (USA) using a non-compartmental analysis and employing a linear interpolation. For stroke studies, differences between groups were tested using a One-way ANOVA with a Tukey's correction for multiple comparisons. […] Values for animals experiencing premature death due to any reason including subarachnoid hemorrhage or hemorrhagic transformation were imputed to reflect the worst neurological score and the maximum stroke volume achieved across all animals.

[7] = alteplase started at the end of the nerinetide infusion
[8] = nerinetide 7.6 mg/kg iv bolus with alteplase 0.9 mg/kg (human dose)
[9] = nerinetide 7.6 mg/kg iv bolus with alteplase 5.4 mg/kg

In the case of `CC[C@H](C)[C@H](NC(=O)[C@H](CO)NC(=O)[C@H](CO)NC(=O)[C@H](CC(C)C)NC(=O)[C@H](CCCCN)NC(=O)[C@H](CCCN=C(N)N)NC(=O)[C@H](CCCN=C(N)N)NC(=O)[C@H](CCCN=C(N)N)NC(=O)[C@H](CCC(N)=O)NC(=O)[C@H](CCCN=C(N)N)NC(=O)[C@H](CCCN=C(N)N)NC(=O)[C@H](CCCCN)NC(=O)[C@H](CCCCN)NC(=O)[C@H](CCCN=C(N)N)NC(=O)CNC(=O)[C@@H](N)Cc1ccc(O)cc1)C(=O)N[C@@H](CCC(=O)O)C(=O)N[C@@H](CO)C(=O)N[C@@H](CC(=O)O)C(=O)N[C@H](C(=O)O)C(C)C` [Nerinetide] (H-YGRKKRRQRRRKLSSIESDV-OH), the half-life [1] is reported as 5 to 10 min, the “degradation of Cmax or AUC by alteplase” value ([2]; alteplase 10 minutes after the end of the 10-min nerinetide infusion) is reported as “eliminated degradation of Cmax or AUC” and the “reduction in the AUC of nerinetide” value [2, 7] is reported as 32.3%. The “reduction of the Cmax of nerinetide” value [2, 7] was 23.1%, the “reduction in the AUC of nerinetide” value ([2]; alteplase started simultaneously) was 53.9% and the “reduction of the Cmax of nerinetide” value ([2]; nerinetide 2.6 mg/kg 10-minute infusion, alteplase 1 mg/kg started simultaneously) was 47.4%. For the same compound, the EC50 (PDZ2 domain of PSD-95) was 93 nM, the “neurological function 24 hours after tMCAo” value ([3]; doses as low as 0.25 mg/kg) was “improvement” and the “infarct volume 24 hours after tMCAo” value ([3]; doses as low as 0.25 mg/kg, vs vehicle) was “significant reduction”. The “efficacy in tMCAo” value ([3]; doses of as little as 0.025 mg/kg) was “effective”, the “efficacy in tMCAo” value ([3]; doses up to at least 25 mg/kg) was “effective” and the “reducing infarction volume, hemispheric swelling and improving neurological scores” value ([3]; rat tMCAO, comparison of the two peptides) was “equally effective”. The “dose with the highest efficacy” value ([3]; rat tMCAo dose-response) was “about 15 mg/kg”, the “effective dosage range (reducing infarction size and neurologic deficit)” value ([3]; rat tMCAo, iv bolus 60 minutes after tMCAo, with lodoxamide) was 0.025-25 mg/kg and the “time of decline of plasma level to background” value ([4]; absence of alteplase) was “about 120 minutes”. The “time at which plasma peak levels were reached” value ([4]; absence of alteplase, 2.6 mg/kg iv) was “ten”, the AUC change ([4]; presence of alteplase) was “similarly reduced” and the “reduction of maximum plasma level” value ([4]; presence of alteplase) was “more than 50%”. The “time of decline of plasma level to background” value ([4]; presence of alteplase) was 60 min, the “elimination in human plasma with tenecteplase (TNK)” value ([5]; TNK 6.25 ug/ml) was “rapid elimination” and the “stability alone in human plasma” value ([5]; absence of alteplase) was “stable”. The “degradation in human plasma with alteplase” value ([5]; rt-PA 135 ug/ml) was “rapid degradation”, the half-life ([6]; male, plasma, intravenous, 7.6 mg/kg, human equivalent concentrations) was 5 to 10 min and the “change of AUC of nerinetide” value [6, 8] was “non-significant reduction”. The “change of Cmax of nerinetide” value [6, 8] was “non-significant reduction”, the “lowering of the mean AUC of nerinetide” value [6, 9] was 44% and the “lowering of the mean Cmax of nerinetide” value [6, 9] was 49.5%.
